Reference: paper PMC6737244, “Cathelicidin Peptides Restrict Bacterial Growth via Membrane Perturbation and Induction of Reactive Oxygen Species” (mBio, 2019)
Ends that are not written are not given here.

What was measured:
[1] = system: S. aureus; assay: CellROX ROS production, imaging; type: cell-based, Staphylococcus aureus; settings: for CellROX oxidative signal, parental strain: S. aureus WT; for CellROX oxidative signal, parental strain / CellROX oxidative signal, sodA or sodM null mutants: 100 nM, 30 min; for CellROX oxidative signal, sodA or sodM null mutants: S. aureus sodA or sodM
Excerpt: The growth rate of the sodA mutant in the absence of peptide was lower than that of the wild type (WT), underscoring the importance of effectively controlling O2^− accumulation.

[2] = system: S. aureus; assay: Growth of cultures (OD600) with sublethal peptide; type: cell-based, Staphylococcus aureus; settings: for Effect on growth of S. aureus cultures: 30 nM peptide, CAMHB, OD600
Experimental: To examine this further, we monitored the growth of S. aureus cultures after the addition of 30 nM B22 or B22a. This concentration is in the biologically relevant range of peptide that is produced by mammals ([13]). […] Cell growth recovered at later time points (data not shown).

[3] = system: V. cholerae; assay: Single-cell real-time phase-contrast imaging in microfluidic chambers; type: cell-based, Vibrio cholerae; settings: 2 μM peptide, continuous flow
Experimental: To better understand the antimicrobial activity of the peptides, we developed a single-cell, real-time imaging assay to monitor the disruption of V. cholerae cells. Bacteria were seeded into microfluidic chambers and grown under continuous flow before imaging by phase-contrast microscopy. Untreated V. cholerae cells retained their characteristic comma shape, cell length (1 by 2 μm), and membrane integrity (Fig. S2). Conversely, cells treated with 2 μM B22 (or B22a) began losing their shape and were noticeably shorter within 30 s (Fig. S2).
Imaging of individual cells was conducted using the CellAsic microfluidic perfusion system (ONIX) with integrated temperature controller and B04A bacterial microfluidic plates (EMD Millipore, Billerica, MA). The CellAsic ONIX FG software (v 5.0.2.0) was used to control flow rate and deliver fresh medium with or without antimicrobial peptide (AMP). The chambers were loaded by perfusion of 50 μl of a 10^6 cells/ml bacterial suspension at 2 lb/in^2 for 15 s to prime the cells followed by 4 lb/in^2 for 15 s to trap the cells. The chamber was then rinsed at 1 lb/in^2 for 30 s followed by 5 lb/in^2 for 5 min. To quickly switch solutions, medium was perfused at 10 lb/in^2 for 10 s, and then flow was reduced to 2 lb/in^2 for the remainder of the imaging.

[4] = system: E. cloacae; assay: Growth of cultures (OD600) with sublethal peptide; settings: nanomolar (30 nM) peptide, means of four data sets
[5] = system: V. cholerae; assay: SYTOX Green membrane damage, single-cell imaging; type: cell-based, Vibrio cholerae; settings: for Number of fluorescent cells: V. cholerae, 25, 50 or 100 nM peptide (Fig. S4; legend says SYTOX Green)
Experimental: To better understand the membrane blebbing event, V. cholerae was treated with B22 in the presence of SYTOX Green and imaged on agarose pads to stabilize cells with compromised envelopes. SYTOX Green is a fluorescent nucleic acid stain that is impermeant to live cells and is used to distinguish dead or dying cells in a population ([17]). Cells were treated with a sublethal (1 μM) concentration of B22 in order to visualize physiological changes in susceptible and unaffected cells simultaneously. Time-lapse phase-contrast imaging was used to monitor tip-to-tip cell length and membrane integrity.
SYTOX Green (Invitrogen, Carlsbad, CA, USA) uptake was used to monitor the effect of the AMPs on bacterial membranes. Mid-log cells were resuspended in CAMHB to 1 × 10^6 CFU/ml and seeded into microfluidic chambers as described above. The cells were then flushed with medium containing 0.1 μM SYTOX Green for 5 min. The same medium was used for control cells, while the medium for treatment samples also included AMP at the indicated concentration. Fluorescence was detected by microscopy as described earlier using the GFP filter set.

[6] = system: E. coli; assay: Growth of cultures (OD600) with sublethal peptide; settings: nanomolar (30 nM) peptide, means of four data sets
[7] = system: P. aeruginosa biofilms; assay: Established biofilm in flow cell, LIVE/DEAD staining; settings: 100 nM
[8] = system: P. aeruginosa; assay: Growth of cultures (OD600) with sublethal peptide; settings: 20 nM, 2 h, CAMHB
[9] = system: Klebsiella pneumoniae 88 (NDM1+); type: cell-based
Experimental: (§1) MICs were determined by using the broth microdilution method based on the general recommendations of the Clinical and Laboratory Standards Institute (CLSI). Bacteria were grown in CAMHB overnight. They were then diluted into fresh medium the following morning and grown to early log phase. The cultures were then diluted to approximately 5 × 10^5 CFU ml^−1, and 100 μl was added to sterile 96-well polypropylene microtiter plates (Corning, NY, USA) preloaded with twofold dilutions of antimicrobial peptides. […] All MIC assays were determined from at least three independent assays.

[10] = system: Pseudomonas aeruginosa PAO1; type: cell-based
Experimental: as §1

[11] = system: Klebsiella pneumoniae 262 (NDM1+); type: cell-based
Experimental: as §1

[12] = system: Enterobacter cloacae OC4092; type: cell-based
Experimental: as §1

[13] = system: Escherichia coli UTI89; type: cell-based
Experimental: as §1

[14] = system: Pseudomonas aeruginosa OC4083; type: cell-based
Experimental: as §1

[15] = system: Escherichia coli ATCC 35218; type: cell-based
Experimental: as §1

[16] = system: Escherichia coli ATCC 25922; type: cell-based
Experimental: as §1

[17] = system: Klebsiella pneumoniae OC8893; type: cell-based
Experimental: as §1

[18] = system: Klebsiella pneumoniae C2; type: cell-based
Experimental: as §1

[19] = system: Pseudomonas aeruginosa ATCC 27853; type: cell-based
Experimental: as §1

[20] = system: Enterobacter cloacae OC4080; type: cell-based
Experimental: as §1

[21] = system: Klebsiella pneumoniae ATCC 700603; type: cell-based
Experimental: as §1

[22] = system: Escherichia coli MC4100a; type: cell-based
Experimental: as §1

[23] = system: Klebsiella pneumoniae OC4110; type: cell-based
Experimental: as §1

[24] = system: Escherichia coli OC4075; type: cell-based
Experimental: as §1

[25] = system: V. cholerae; assay: Growth of cultures (OD600) with sublethal peptide; settings: nanomolar (30 nM) peptide, means of four data sets

Row | Substance | CellROX oxidative signal, parental strain [1] | CellROX oxidative signal, sodA or sodM null mutants [1] | Effect on growth of S. aureus cultures [2] | Time until cells began losing shape and were noticeably shorter [3] | Effect on growth rate [4] | Number of fluorescent cells [5] | Effect on growth rate [6] | MIC [9] | MIC [10] | MIC [11] | MIC [12] | MIC [13] | MIC [14] | MIC [15] | MIC [16] | MIC [17] | MIC [18] | MIC [19] | MIC [20] | MIC [21] | other results
1 | FRKKLKKLFKKLSPVIPLLKLG [B22] | weak signal | strong oxidative signal | reduced the initial growth rate | ≤ 30 s | reproducibly reduced the growth rate | increased | reproducibly reduced the growth rate | 4 µM | 4 µM | 4 µM | 4 µM | 2 µM | 2 µM | 4 µM | 2 µM | 4 µM | 4 µM | 4 µM | 4 µM | 2 µM | CellROX oxidative signal ([1]; S. aureus, 500 nM, 2.5 μM CellROX): fluorescent burst; Effect on growth of WT strain ([2]; S. aureus WT, 30 nM): slowed the growth; Effect on growth of sodA mutant ([2]; S. aureus sodA, 30 nM, compared with WT): to an even greater extent; Share of population with strong cytoplasmic SYTOX Green signal ([5]; 1 μM (sublethal), agarose pads, SYTOX Green): approximately 35%; Decrease in cell contrast of dying cells ([5]; 1 μM, agarose pads, time-lapse phase contrast): > 90%; Drop in biofilm biomass ([7]; 4-h period, continuous flow): 50%; Cell death in biofilm (spike) ([7]; after 1 h): > 50; Initial growth of P. aeruginosa relative to control [8]: significantly reduced; MIC [22]: 4 µM; MIC [23]: 4 µM; MIC [24]: 4 µM; Effect on growth rate [25]: reproducibly reduced the growth rate
2 | FRKKLKKLFKKLSPVIPLLKLG-NH2 [B22a] | weak signal | strong oxidative signal | reduced the initial growth rate | ≤ 30 s | reproducibly reduced the growth rate | increased | reproducibly reduced the growth rate | 2 µM | 2 µM | 4 µM | 4 µM | 2 µM | 2 µM | 2 µM | 2 µM | 2 µM | 2 µM | 2 µM | 4 µM | 2 µM | MIC [22]: 4 µM; MIC [23]: 2 µM; MIC [24]: 2 µM; Effect on growth rate [25]: reproducibly reduced the growth rate
